Drawing on patent US7538132B2, “Isoxazolo derivatives” (Hoffman-La Roche Inc., priority 2005, dated 2009), this text covers Ki for seven compounds.

The target in the experiment is T1, GABA A receptor α5β3γ2 (hα5) (Homo sapiens, UniProt P18507+P31644).
T1 construct: expressed in transfected cells; host or cells: HEK293 (transiently transfected; membranes prepared from cell pellets)
As to the kind of experiment: [3H]flumazenil competition binding assay, human GABA A α5β3γ2 receptors. The conditions noted are these: displacement of [3H]flumazenil (0.5 nM) from membranes of HEK293 cells expressing human α5β3γ2; 1 hour at 4° C.; means of two determinations. On the procedure:
The affinity of compounds at GABA A receptor subtypes was measured by competition for [3H]flumazenil (85 Ci/mmol; Roche) binding to HEK293 cells expressing rat (stably transfected) or human (transiently transfected) receptors of composition α1β3γ2, α2⊖3γ2, α3β3γ2 and α5β3γ2.
Cell pellets were suspended in Krebs-tris buffer (4.8 mM KCl, 1.2 mM CaCl2, 1.2 mM MgCl2, 120 mM NaCl, 15 mM Tris; pH 7.5; binding assay buffer), homogenized by polytron for ca. 20 sec on ice and centrifuged for 60 min at 4° C. (50000 g; Sorvall, rotor: SM24=20000 rpm). The cell pellets were resuspended in Krebs-tris buffer and homogenized by polytron for ca. 15 sec on ice. Protein was measured (Bradford method, Bio-Rad) and aliquots of 1 mL were prepared and stored at −80° C.
Assays were incubated to equilibrium for 1 hour at 4° C. and harvested onto GF/C uni-filters (Packard) by filtration using a Packard harvester and washing with ice-cold wash buffer (50 mM Tris; pH 7.5). After drying, filter-retained radioactivity was detected by liquid scintillation counting. Ki values were calculated using Excel-Fit (Microsoft) and are the means of two determinations.
On the technique in general: In a radioligand displacement assay an active substance lowers the binding of a labelled ligand.
One may read the Ki as a dissociation constant, usually derived from enzyme kinetics or from competition with a known ligand. A low value points to higher affinity. `CCc1onc(-c2ccccc2)c1C(=O)c1c[nH]c(C(=O)NCC2CC2)c1` [Example 216, 4-(5-Ethyl-3-phenyl-isoxazole-4-carbonyl)-1H-pyrrole-2-carboxylic acid cyclopropylmethyl-amide] had a Ki of 0.0023 µM.
`CCc1onc(-c2ccccc2)c1C(=O)c1c[nH]c(C(=O)NC2CC2)c1` [Example 217, 4-(5-Ethyl-3-phenyl-isoxazole-4-carbonyl)-1H-pyrrole-2-carboxylic acid cyclopropylamide] registered a Ki of 0.00485 µM.
The same measure for `COCc1onc(-c2ccc(F)cc2)c1C(=O)c1c[nH]c(C(=O)NC2CCOCC2)c1` [Example 221, 4-[3-(4-Fluoro-phenyl)-5-methoxymethyl-isoxazole-4-carbonyl]-1H-pyrrole-2-carboxylic acid (tetrahydro-pyran-4-yl)-amide]: 0.0043 µM; for `Cc1onc(-c2ccc(Br)cc2)c1C(=O)c1cc(C(=O)NC2CCOCC2)n(C)c1` [Example 231, 4-[3-(4-Bromo-phenyl)-5-methyl-isoxazole-4-carbonyl]-1-methyl-1H-pyrrole-2-carboxylic acid (tetrahydro-pyran-4-yl)-amide]: 0.008 µM.
On to `Cc1onc(-c2ccc(Br)cc2)c1C(=O)c1cc(C(=O)NCCCN2CCOCC2)n(C)c1` [Example 232, 4-[3-(4-Bromo-phenyl)-5-methyl-isoxazole-4-carbonyl]-1-methyl-1H-pyrrole-2-carboxylic acid (3-morpholin-4-yl-propyl)-amide], for which the affinity corresponds to a Ki of 0.0087 µM.
As for `Cc1onc(-c2ccc(F)c(F)c2)c1C(=O)c1c[nH]c(C(=O)NC2CCOCC2)c1` [Example 254, 4-[3-(3,4-Difluoro-phenyl)-5-methyl-isoxazole-4-carbonyl]-1H-pyrrole-2-carboxylic acid (tetrahydro-pyran-4-yl)-amide], the figure is 0.0042 µM.
`Cc1onc(-c2ccc(F)c(F)c2)c1C(=O)c1c[nH]c(C(=O)NC2CCCC2)c1` [Example 255, 4-[3-(3,4-Difluoro-phenyl)-5-methyl-isoxazole-4-carbonyl]-1H-pyrrole-2-carboxylic acid cyclopentylamide] gave an inhibitory constant (Ki) of 0.0064 µM.
